Test results: patent publication US11051515B2, “3-acyl-benzamides and their use as herbicides” (Bayer Aktiengesellschaft, priority 2017, dated 2021)

Columns and labels:
[1] = tested on: ALOMY; assay: Pre-emergence action against ALOMY; type: in vivo, Alopecurus myosuroides; details: dosage 320 g/ha, pre-emergence, scored visually after 3 weeks vs untreated controls, 100% = plants have died, 0% = like control plants
In short: (§1)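 Seeds sown in sandy loam in wood-fiber pots and covered with soil. Greenhouse growth; visual damage scored after 3 weeks versus untreated controls (100% = dead, 0% = like control).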

[2] = tested on: AVEFA; assay: Pre-emergence action against AVEFA; type: in vivo, Avena fatua; details: dosage 320 g/ha, scored visually after 3 weeks vs untreated controls
In short: as §1

[3] = tested on: CYPES; assay: Pre-emergence action against CYPES; type: in vivo, Cyperus esculentus; details: pre-emergence, dosage 320 g/ha, scored visually after 3 weeks vs untreated controls
In short: as §1

[4] = tested on: ECHCG; assay: Pre-emergence action against ECHCG; type: in vivo, Echinochloa crus-galli; details: pre-emergence, dosage 320 g/ha, scored visually after 3 weeks vs untreated controls
In short: as §1

[5] = tested on: LOLMU; assay: Pre-emergence action against LOLMU; type: in vivo, Lolium multiflorum; details: dosage 320 g/ha, scored visually after 3 weeks vs untreated controls
Text: Seeds of monocotyledonous and dicotyledonous weed plants and crop plants are laid out in sandy loam soil in wood-fiber pots and covered with soil. The compounds of the invention, formulated in the form of wettable powders (WP) or as emulsion concentrates (EC), are then applied to the surface of the covering soil in the form of an aqueous suspension or emulsion at a water application rate equating to […], with addition of 0.2% wetting agent. After the treatment, the pots are placed in a greenhouse and kept under good growth conditions for the trial plants. The damage to the test plants is scored visually after a test period of 3 weeks by comparison with untreated controls (herbicidal activity in percent (%): 100% activity=the plants have died, 0% activity=like control plants).

[6] = tested on: SETVI; assay: Pre-emergence action against SETVI; type: in vivo, Setaria viridis; details: pre-emergence, dosage 320 g/ha, scored visually after 3 weeks vs untreated controls
In short: as §1

[7] = tested on: ABUTH; assay: Pre-emergence action against ABUTH; type: in vivo, Abutilon theophrasti; details: pre-emergence, dosage 320 g/ha, scored visually after 3 weeks vs untreated controls
In short: as §1

[8] = tested on: AMARE; assay: Pre-emergence action against AMARE; type: in vivo, Amaranthus retroflexus; details: pre-emergence, dosage 320 g/ha, scored visually after 3 weeks vs untreated controls
In short: as §1

[9] = tested on: MATIN; assay: Pre-emergence action against MATIN; type: in vivo, Matricaria inodora; details: Dosage 320 g/ha, pre-emergence
In short: as §1

[10] = tested on: PHBPU; assay: Pre-emergence action against PHBPU; type: in vivo, Pharbitis purpurea; details: Dosage 320 g/ha, pre-emergence
In short: as §1

[11] = tested on: POLCO; assay: Pre-emergence action against POLCO; type: in vivo, Polygonum convolvulus; details: Dosage 320 g/ha, pre-emergence
In short: as §1

[12] = tested on: STEME; assay: Pre-emergence action against STEME; type: in vivo, Stellaria media; details: Dosage 320 g/ha, pre-emergence
In short: as §1

[13] = tested on: VIOTR; assay: Pre-emergence action against VIOTR; type: in vivo, Viola tricolor; details: Dosage 320 g/ha, pre-emergence
In short: as §1

[14] = tested on: VERPE; assay: Pre-emergence action against VERPE; type: in vivo, Veronica persica; details: Dosage 320 g/ha, pre-emergence
In short: as §1

[15] = tested on: ALOMY; assay: Post-emergence action against ALOMY; type: in vivo, Alopecurus myosuroides; details: Dosage 80 g/ha, post-emergence
In short: (§2)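 Post-emergence foliar spray on greenhouse plants at the one-leaf stage, using wettable-powder or emulsion-concentrate formulations in water (600 to […], plus 0.2% wetting agent). Damage scored by eye roughly 3 weeks later against untreated plants: 0% = like control, 100% = dead.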

[16] = tested on: AVEFA; assay: Post-emergence action against AVEFA; type: in vivo, Avena fatua; details: post-emergence, dosage 80 g/ha, visual assessment about 3 weeks after treatment vs untreated controls
In short: as §2

[17] = tested on: ECHCG; assay: Post-emergence action against ECHCG; type: in vivo, Echinochloa crus-galli; details: post-emergence, dosage 80 g/ha, visual assessment about 3 weeks after treatment vs untreated controls
In short: as §2

[18] = tested on: SETVI; assay: Post-emergence action against SETVI; type: in vivo, Setaria viridis; details: post-emergence, dosage 80 g/ha, visual assessment about 3 weeks after treatment vs untreated controls
In short: as §2

[19] = tested on: ABUTH; assay: Post-emergence action against ABUTH; type: in vivo, Abutilon theophrasti; details: post-emergence, dosage 80 g/ha, visual assessment about 3 weeks after treatment vs untreated controls
In short: as §2

[20] = tested on: AMARE; assay: Post-emergence action against AMARE; type: in vivo, Amaranthus retroflexus; details: post-emergence, dosage 80 g/ha, visual assessment about 3 weeks after treatment vs untreated controls
In short: as §2

[21] = tested on: MATIN; assay: Post-emergence action against MATIN; type: in vivo, Matricaria inodora; details: post-emergence, dosage 80 g/ha, visual assessment about 3 weeks after treatment vs untreated controls
In short: as §2

[22] = tested on: PHBPU; assay: Post-emergence action against PHBPU; type: in vivo, Pharbitis purpurea; details: post-emergence, dosage 80 g/ha
In short: as §2

[23] = tested on: POLCO; assay: Post-emergence action against POLCO; type: in vivo, Polygonum convolvulus; details: post-emergence, dosage 80 g/ha
In short: as §2

[24] = tested on: STEME; assay: Post-emergence action against STEME; type: in vivo, Stellaria media; details: post-emergence, dosage 80 g/ha
In short: as §2

[25] = tested on: VIOTR; assay: Post-emergence action against VIOTR; type: in vivo, Viola tricolor; details: post-emergence, dosage 80 g/ha
In short: as §2

[26] = tested on: VERPE; assay: Post-emergence action against VERPE; type: in vivo, Veronica persica; details: dosage 80 g/ha
In short: as §2

[27] = tested on: LOLRI; assay: Pre-emergence action against LOLRI; type: in vivo, Lolium rigidum; details: dosage 320 g/ha, scored visually after 3 weeks vs untreated controls
In short: as §1

[28] = tested on: LOLRI; assay: Post-emergence action against LOLRI; type: in vivo, Lolium rigidum; details: dosage 80 g/ha, visual assessment about 3 weeks after treatment vs untreated controls
Experimental: Seeds of monocotyledonous and dicotyledonous weed and crop plants are laid out in sandy loam soil in wood-fiber pots, covered with soil and cultivated in a greenhouse under good growth conditions. 2 to 3 weeks after sowing, the test plants are treated at the one-leaf stage. The compounds of the invention, formulated in the form of wettable powders (WP) or as emulsion concentrates (EC), are then sprayed onto the green parts of the plants in the form of an aqueous suspension or emulsion at a water application rate equating to […], with addition of 0.2% wetting agent. After the test plants have been left to stand in the greenhouse under optimal growth conditions for about 3 weeks, the action of the preparations is assessed visually in comparison to untreated controls (herbicidal action in percent (%): 100% activity=the plants have died, 0% activity=like control plants). […] At the same time, inventive compounds leave Gramineae crops such as barley, wheat, rye, millet/Sorghum, corn or rice virtually undamaged when applied post-emergence, even at high active ingredient dosages. In addition, some substances are also harmless to dicotyledonous crops such as soya, cotton, oilseed rape, sugar beet or potatoes. Some of the compounds according to the invention have high selectivity and are therefore suitable for controlling unwanted vegetation in agricultural crops by the post-emergence method. The data of Tables B18 to B34 below illustrate, in an exemplary manner, the […] herbicidal action of the compounds according to the invention, the herbicidal activity being stated in percent.

[29] = tested on: CYPES; assay: Post-emergence action against CYPES; type: in vivo, Cyperus esculentus; details: Cyperus esculentus, 504 h; post-emergence, dosage 80 g/ha, visual assessment about 3 weeks after treatment vs untreated controls; read-out: Post-emergence action against CYPES (herbicidal action in percent)
In short: as §2

CCn1nnnc1NC(=O)c1ccc(C(F)(F)F)c(C(=O)C2CC2)c1OC [2-50]
Pre-emergence action against ALOMY (herbicidal activity in percent) [1]: 100% | Pre-emergence action against AVEFA (herbicidal activity) [2]: 100% | Pre-emergence action against CYPES (herbicidal activity) [3]: 100% | Pre-emergence action against ECHCG (herbicidal activity) [4]: 100% | Pre-emergence action against LOLMU (herbicidal activity) [5]: 100% | SETVI (Table B8, pre-emergence herbicidal activity) [6]: 100% | Pre-emergence action against ABUTH (herbicidal activity) [7]: 100% | Pre-emergence action against AMARE (herbicidal activity) [8]: 100% | Pre-emergence action against MATIN [9]: 100% | Pre-emergence action against PHBPU [10]: 100% | Pre-emergence action against POLCO [11]: 80% | Pre-emergence action against STEME [12]: 100% | Pre-emergence action against VIOTR [13]: 100% | Pre-emergence action against VERPE [14]: 100% | Post-emergence action against ALOMY [15]: 90% | Post-emergence action against AVEFA (herbicidal action in percent) [16]: 90% | Post-emergence action against ECHCG (herbicidal action in percent) [17]: 100% | Post-emergence action against SETVI (herbicidal action in percent) [18]: 100% | Post-emergence action against ABUTH (herbicidal action in percent) [19]: 90% | Post-emergence action against AMARE (herbicidal action in percent) [20]: 100% | Post-emergence action against MATIN (herbicidal action in percent) [21]: 100% | Post-emergence action against PHBPU [22]: 100 | Post-emergence action against POLCO [23]: 90 | Post-emergence action against STEME [24]: 100 | Post-emergence action against VIOTR [25]: 100 | Post-emergence action against VERPE [26]: 90

CCn1nnnc1NC(=O)c1ccc(C(F)(F)F)c(C(=O)C2(C)CC2)c1Cl [2-147]
Pre-emergence action against ALOMY (herbicidal activity in percent) [1]: 90% | Pre-emergence action against AVEFA (herbicidal activity) [2]: 90% | Pre-emergence action against CYPES (herbicidal activity) [3]: 80% | Pre-emergence action against ECHCG (herbicidal activity) [4]: 100% | Pre-emergence action against LOLRI (herbicidal activity) [27]: 90% | SETVI (Table B8, pre-emergence herbicidal activity) [6]: 100% | Pre-emergence action against ABUTH (herbicidal activity) [7]: 100% | Pre-emergence action against AMARE (herbicidal activity) [8]: 100% | Pre-emergence action against MATIN [9]: 100% | Pre-emergence action against STEME [12]: 100% | Pre-emergence action against VIOTR [13]: 100% | Pre-emergence action against VERPE [14]: 80% | Post-emergence action against AVEFA (herbicidal action in percent) [16]: 80% | Post-emergence action against ECHCG (herbicidal action in percent) [17]: 80% | Post-emergence action against LOLRI (herbicidal action in percent) [28]: 80% | Post-emergence action against SETVI (herbicidal action in percent) [18]: 80% | Post-emergence action against ABUTH (herbicidal action in percent) [19]: 90% | Post-emergence action against AMARE (herbicidal action in percent) [20]: 80% | Post-emergence action against MATIN (herbicidal action in percent) [21]: 100% | Post-emergence action against PHBPU [22]: 90

CC(C)C(=O)c1c(C(F)(F)F)ccc(C(=O)Nc2nnnn2C)c1Cl [1-140]
pest or weed control at 320 g/ha ([1]; Alopecurus myosuroides, 504 h, read-out: Pre-emergence action against ALOMY (herbicidal activity in percent)): 100% | pest or weed control at 320 g/ha ([2]; Avena fatua, 504 h, read-out: Pre-emergence action against AVEFA (herbicidal activity)): 80% | pest or weed control at 320 g/ha ([3]; Cyperus esculentus, 504 h, read-out: Pre-emergence action against CYPES (herbicidal activity)): 90% | pest or weed control at 320 g/ha ([4]; Echinochloa crus-galli, 504 h, read-out: Pre-emergence action against ECHCG (herbicidal activity)): 100% | pest or weed control at 320 g/ha ([27]; Lolium rigidum, 504 h, read-out: Pre-emergence action against LOLRI (herbicidal activity)): 100% | pest or weed control at 320 g/ha ([6]; Setaria viridis, 504 h, read-out: SETVI (Table B8, pre-emergence herbicidal activity)): 100% | pest or weed control at 320 g/ha ([7]; Abutilon theophrasti, 504 h, read-out: Pre-emergence action against ABUTH (herbicidal activity)): 100% | pest or weed control at 320 g/ha ([8]; Amaranthus retroflexus, 504 h, read-out: Pre-emergence action against AMARE (herbicidal activity)): 100% | pest or weed control at 320 g/ha ([9]; Tripleurospermum inodorum, 504 h): 100% | pest or weed control at 320 g/ha ([11]; Fallopia convolvulus, 504 h): 80% | pest or weed control at 320 g/ha ([12]; Stellaria media, 504 h): 100% | pest or weed control at 320 g/ha ([13]; Viola tricolor, 504 h): 100% | pest or weed control at 320 g/ha ([14]; Veronica persica, 504 h): 100% | pest or weed control at 80 g/ha [29]: 90% | pest or weed control at 80 g/ha ([17]; Echinochloa crus-galli, 504 h, read-out: Post-emergence action against ECHCG (herbicidal action in percent)): 100% | pest or weed control at 80 g/ha ([28]; Lolium rigidum, 504 h, read-out: Post-emergence action against LOLRI (herbicidal action in percent)): 80% | pest or weed control at 80 g/ha ([18]; Setaria viridis, 504 h, read-out: Post-emergence action against SETVI (herbicidal action in percent)): 100% | pest or weed control at 80 g/ha ([19]; Abutilon theophrasti, 504 h, read-out: Post-emergence action against ABUTH (herbicidal action in percent)): 100% | pest or weed control at 80 g/ha ([20]; Amaranthus retroflexus, 504 h, read-out: Post-emergence action against AMARE (herbicidal action in percent)): 90% | pest or weed control at 80 g/ha ([21]; Tripleurospermum inodorum, 504 h, read-out: Post-emergence action against MATIN (herbicidal action in percent)): 100% | pest or weed control at 80 g/ha ([22]; Ipomoea purpurea, 504 h): 90% | pest or weed control at 80 g/ha ([24]; Stellaria media, 504 h): 100% | pest or weed control at 80 g/ha ([25]; Viola tricolor, 504 h): 100% | pest or weed control at 80 g/ha ([26]; Veronica persica, 504 h): 80%
